PMC9797592, “TJ-M2010-5, a novel CNS drug candidate, attenuates acute cerebral ischemia-reperfusion injury through the MyD88/NF-κB and ERK pathway” (Frontiers in Pharmacology, 2022)

What was measured:
[1] = test system: LPS-stimulated BV-2 cells; experiment: LPS-stimulated BV-2 cell model: morphology and TNF-α/IL-6 ELISA; type: cell-based; details: LPS-stimulated BV-2 cells; pretreatment 2 h, LPS 24 h; ELISA
Protocol: BV-2 microglial and SH-SY5Y cells were cultured as previously described ([Zhao et al., 2020]). A lipopolysaccharide (LPS)-stimulated BV-2 cell model was established to mimic severe neuroinflammation induced by multiple inflammatory mediators after reperfusion ([Li et al., 2021]). BV-2 cells were pretreated with different concentrations of TJ-5 for 2 h before LPS (1 μg/ml) stimulation (#L2880, Sigma, United States). Twenty-4 hours later, BV-2 cells and the culture supernatants were harvested for subsequent experiments. In addition, ST2825, a recognized MyD88 inhibitor, was used as positive control group.
Enzyme-linked immunosorbent assay (ELISA) kits were used to detect the levels of TNF-α, IL-1β, and IL-6 in the brain. Brain tissue was homogenized in 1 ml of phosphate-buffered saline using a tissue homogenizer. Then, the homogenates were centrifuged at 14,000 g for 10 min at 4 °C. The supernatant was immediately transferred for measurement following the manufacturer’s instructions. BV-2 cells were incubated with different treatments and the supernatants were collected and measured.

[2] = test system: NF-κB p65; experiment: NF-κB p65 nuclear translocation in LPS-stimulated BV-2 cells, immunofluorescence; type: cell-based; details: 12 h after LPS stimulation
Protocol: BV-2 microglial and SH-SY5Y cells were cultured as previously described ([Zhao et al., 2020]). A lipopolysaccharide (LPS)-stimulated BV-2 cell model was established to mimic severe neuroinflammation induced by multiple inflammatory mediators after reperfusion ([Li et al., 2021]). BV-2 cells were pretreated with different concentrations of TJ-5 for 2 h before LPS (1 μg/ml) stimulation (#L2880, Sigma, United States). […] In addition, ST2825, a recognized MyD88 inhibitor, was used as positive control group.
For BV-2 cells immunofluorescence staining, the cells were fixed with 4% paraformaldehyde for 10 min and permeabilized with 0.5% Triton X-100 for 10 min. After blocking with goat serum, the cells were sequentially incubated with the primary antibody, secondary antibody, and Hoechst in sequence. Images were captured using a confocal microscope. The fluorescence intensity was analyzed using ImageJ software.

[3] = test system: CIRI mice; experiment: MCAO cerebral ischemia-reperfusion injury model: neurological deficit score and TTC infarct volume; type: in vivo, C57BL/6 mice; details: edaravone 3 mg/kg i.v. at 1 h of ischemia; 24 h reperfusion; TTC; I/R group 34.24%
Protocol: Male C57BL/6 mice (Beijing Vital River Laboratory Animal Technology Co. Ltd., Beijing, China) weighing 22–28 g and aged 8–10 weeks were used. All animal experiments were approved by the Institutional Animal Care and Use Committee of Tongji Hospital (Wuhan, China). All procedures were performed in accordance with specific pathogen-free standards. Mice were randomly divided into the following seven groups: sham, I/R, vehicle (I/R + saline), I/R + TJ-5 (5 mg/kg), I/R + TJ-5 (10 mg/kg), I/R + TJ-5 (15 mg/kg), and I/R + edaravone (3 mg/kg).
The mice were anesthetized with 1% pentobarbital sodium solution via intraperitoneal injection, and the body temperature was maintained at 37.0°C–37.5°C. The middle cerebral artery occlusion (MCAO) model was established according to the Longa method, as described previously ([Longa et al., 1989]). In brief, the right carotid artery was carefully separated and exposed. A silicon-coated embolic suture (Doccol, United States) was inserted slowly from the external carotid artery (ECA) into the internal carotid artery (ICA) until it reached the middle cerebral artery (MCA). After 1 h of ischemia, the embolic suture was withdrawn. The surgical procedure in the sham group was the same as that in the I/R group, but the MCA was not obstructed.
After 24 h of reperfusion, each group of mice was scored blindly, according to the scoring system of the Longa method ([Longa et al., 1989]). The score was 0 for no obvious neurological deficit, one for inability to fully extend the left forelimb, two for turning to the left, three for leaning to the left while walking, and four for the inability to walk spontaneously and impaired consciousness.
The mice were sacrificed 24 h after I/R. Mouse brains were harvested for the measurement of cerebral infarct volume. The brains were frozen at −80°C for 5 min and cut into five 2-mm thick slices. The slices were then placed in a small dish, 2% 2,3,5-triphenyltetrazolium chloride (TTC) solution (Sigma, United States) was added, and 4% paraformaldehyde was used for fixation. Images were captured using a digital camera. ImageJ software was used to measure the volume of the brain infarction.

Structure (SMILES) | levels of TNF-α and IL-6 in supernatants [1] | LPS-induced NF-κB p65 nuclear translocation [2] | percentage of infarct volume [3] [%]
NC(=O)[C@H]1CCS[C@@H]2C[C@]3(CCCN3C(=O)Cc3ccc(NC(=O)COc4ccc(Cl)cc4Cl)cc3)C(=O)N12 [ST2825, reference compound] | same anti-inflammatory effect | same | 
CC1=NN(c2ccccc2)C(=O)C1 [edaravone, reference compound] |  |  | 18.59
